From ChEMBL document CHEMBL1201862, “PubChem BioAssay data set” (2004)
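Exposure lasted 48 hours, with cells grown in 96-well plates and compounds tested at five concentrations. The concentration for 50% growth inhibition is given as GI50.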 Calls of active or inactive are those of the source. Cut-off read from the data, not from the text of the source: active = GI50 up to about 1.1 µM and inactive = higher.

Experiments:
Assay in all cases: NCI tumour cell line growth inhibition, 48 h
A498 = tested on: A498
CAKI-1 = tested on: CAKI-1
COLO 205 = tested on: COLO 205
EKVX = tested on: EKVX
HCC 2998 = tested on: HCC 2998
K562 = tested on: K562
KM12 = tested on: KM12
MCF7 = tested on: MCF7
MOLT-4 = tested on: MOLT-4
OVCAR-4 = tested on: OVCAR-4
OVCAR-5 = tested on: OVCAR-5
PC-3 = tested on: PC-3
RPMI-8226 = tested on: RPMI-8226
SF-268 = tested on: SF-268
SF-295 = tested on: SF-295
SK-MEL-5 = tested on: SK-MEL-5
SNB-19 = tested on: SNB-19
SR = tested on: SR
UACC-257 = tested on: UACC-257
SK-MEL-28 = tested on: SK-MEL-28

SMILES	GI50 (A498)	GI50 (CAKI-1)	GI50 (COLO 205)	GI50 (EKVX)	GI50 (HCC 2998)	GI50 (K562)	GI50 (KM12)	GI50 (MCF7)	GI50 (MOLT-4)	GI50 (OVCAR-4)	GI50 (OVCAR-5)	GI50 (PC-3)	GI50 (RPMI-8226)	GI50 (SF-268)	GI50 (SF-295)	GI50 (SK-MEL-5)	GI50 (SNB-19)	GI50 (SR)	GI50 (UACC-257)	GI50 (SK-MEL-28)
N#CC1=C(N)N(/N=C/c2ccco2)C(c2ccco2)C1(C#N)C#N (stereo not given)	16 µM (inactive)	15.2 µM (inactive)	14.2 µM (inactive)	19.5 µM (inactive)	19.4 µM (inactive)	5.7 µM (inactive)	15.1 µM (inactive)	20.5 µM (inactive)	11.9 µM (inactive)	15.4 µM (inactive)	20.3 µM (inactive)	23 µM (inactive)	20.8 µM (inactive)	24.6 µM (inactive)	28.4 µM (inactive)	15.3 µM (inactive)	20.4 µM (inactive)	16 µM (inactive)	16.3 µM (inactive)	
O=C(O)C/C=C/CC(=O)O	> 100 µM (inactive)	> 100 µM (inactive)	> 100 µM (inactive)	> 100 µM (inactive)	> 100 µM (inactive)	67.1 µM (inactive)	> 100 µM (inactive)	> 100 µM (inactive)	> 100 µM (inactive)	> 100 µM (inactive)	> 100 µM (inactive)	> 100 µM (inactive)	> 100 µM (inactive)	> 100 µM (inactive)	> 100 µM (inactive)	> 100 µM (inactive)	> 100 µM (inactive)	> 100 µM (inactive)	> 100 µM (inactive)	> 100 µM (inactive)
CCOC(=O)c1nc2ccc(C(F)(F)F)cc2nc1Nc1cc(OC)c(OC)c(OC)c1	> 100 µM (inactive)		> 100 µM (inactive)	> 100 µM (inactive)	> 100 µM (inactive)	> 100 µM (inactive)	> 100 µM (inactive)	> 100 µM (inactive)	> 100 µM (inactive)		> 100 µM (inactive)	> 100 µM (inactive)	> 100 µM (inactive)	> 100 µM (inactive)	> 100 µM (inactive)	> 100 µM (inactive)	> 100 µM (inactive)	> 100 µM (inactive)	> 100 µM (inactive)	> 100 µM (inactive)
Cc1nc2ccc(F)cc2c2c1CCS2	> 100 µM (inactive)		38.5 µM (inactive)	26.2 µM (inactive)	58.1 µM (inactive)	34.6 µM (inactive)	64.9 µM (inactive)	56.4 µM (inactive)	38.1 µM (inactive)	> 100 µM (inactive)		41.1 µM (inactive)	38.8 µM (inactive)	40.6 µM (inactive)	94.4 µM (inactive)	30.3 µM (inactive)	30.3 µM (inactive)	56.8 µM (inactive)	71.9 µM (inactive)	80.5 µM (inactive)
OC(c1ccc(-c2ccccc2)cc1)C(F)(F)c1nc2ccccc2o1 (stereo not given)	9.12 µM (inactive)	25.1 µM (inactive)	> 74 µM (inactive)	> 73.3 µM (inactive)	> 100 µM (inactive)	18.2 µM (inactive)	36.8 µM (inactive)	25.3 µM (inactive)	28.5 µM (inactive)	18.6 µM (inactive)	> 100 µM (inactive)	65.9 µM (inactive)	51.3 µM (inactive)	54.5 µM (inactive)	96.4 µM (inactive)	65.3 µM (inactive)	49 µM (inactive)	25.9 µM (inactive)	40.3 µM (inactive)	> 100 µM (inactive)
CC(=O)O[C@H]1C(=O)[C@@]2(C)[C@H]([C@H](OC(=O)c3ccccc3)[C@]3(O)C[C@H](OC(=O)[C@H](O)[C@@H](NC(=O)c4ccc(N(C)C)cc4)c4ccccc4)C(C)=C1C3(C)C)[C@]1(OC(C)=O)CO[C@@H]1C[C@@H]2O	0.0428 µM (active)	0.339 µM (active)	< 0.005 µM (active)	0.112 µM (active)	< 0.005 µM (active)	< 0.005 µM (active)	< 0.005 µM (active)	< 0.005 µM (active)	0.00631 µM (active)	2.92 µM (inactive)	< 0.005 µM (active)	< 0.005 µM (active)	< 0.005 µM (active)		0.0119 µM (active)	< 0.005 µM (active)	< 0.005 µM (active)	< 0.005 µM (active)		> 50 µM (inactive)
CC(C)C[C@H](NC(=O)[C@H](Cc1cccc2ccccc12)NS(=O)(=O)c1cccc2cccnc12)B(O)O	< 0.0147 µM (active)	0.0923 µM (active)	< 0.0243 µM (active)	0.372 µM (active)	0.00219 µM (active)	< 0.0196 µM (active)	0.0432 µM (active)	< 0.0151 µM (active)	< 0.01 µM (active)	0.0109 µM (active)	< 0.0142 µM (active)	< 0.0272 µM (active)	< 0.01 µM (active)			< 0.01 µM (active)	< 0.0225 µM (active)	< 0.0167 µM (active)	0.0103 µM (active)	
